From PubChem BioAssay (NCI) come the findings set out here.

Structures are written as SMILES.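 Protocol summary: plate cells (96-well), add compound at 5 concentrations, incubate 48 h, interpolate endpoints linearly. TGI: total growth inhibition.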

Among the test systems are SN12C renal; UO-31 renal; CCRF-CEM leukemia; NCI-H23 lung; COLO 205 colon; NCI/ADR-RES ovarian; T-47D breast; MDA-N; OVCAR-8 ovarian; RPMI-8226 leukemia; MALME-3M melanoma; ACHN renal; IGROV1 ovarian; SR leukemia; SK-MEL-5 melanoma; SK-MEL-28 melanoma; DU-145 prostate; RXF 393 renal.
Common to all, as to assay: NCI-60 cell line screen, 48 h

Consider `Clc1c2ccccc2nc2c1[nH]c1ccccc12`, for which the TGI with SN12C renal is > 100 µM; in the experiment on UO-31 renal it was > 100 µM; in the experiment on CCRF-CEM leukemia, > 100 µM; in the experiment on NCI-H23 lung, > 100 µM; in the experiment with COLO 205 colon, 11.8 µM; with NCI/ADR-RES ovarian it was 89.7 µM. Besides, the TGI is > 100 µM in the experiment with T-47D breast; 16.9 µM in the experiment with MDA-N; > 100 µM in the experiment with OVCAR-8 ovarian; 68.2 µM in the experiment with RPMI-8226 leukemia; > 100 µM with MALME-3M melanoma; > 100 µM in the experiment on ACHN renal. The TGI with IGROV1 ovarian was > 100 µM; in the experiment with SR leukemia it was 43.6 µM; in the experiment on SK-MEL-5 melanoma, 21.3 µM; with SK-MEL-28 melanoma, > 100 µM; in the experiment with DU-145 prostate it was > 100 µM.
With `CC1(C)C2CCC(O)(C2)C1N` (stereo not given), the TGI in the experiment on SN12C renal, in the experiment on RXF 393 renal, with UO-31 renal, with CCRF-CEM leukemia, in the experiment on NCI-H23 lung and in the experiment with COLO 205 colon was > 100 µM each time. Moreover, the TGI with NCI/ADR-RES ovarian, with T-47D breast, in the experiment with MDA-N, in the experiment on OVCAR-8 ovarian, in the experiment with RPMI-8226 leukemia and with MALME-3M melanoma was > 100 µM in each case. For the same molecule, the TGI in the experiment with ACHN renal, with IGROV1 ovarian, with SR leukemia, in the experiment with SK-MEL-5 melanoma, with SK-MEL-28 melanoma and in the experiment with DU-145 prostate was > 100 µM in each case.
For the molecule `O=c1oc2ccc([N+](=O)[O-])cc2cc1Br`, the TGI in the experiment on SN12C renal, in the experiment on RXF 393 renal, in the experiment with UO-31 renal, in the experiment with CCRF-CEM leukemia, with NCI-H23 lung and in the experiment on COLO 205 colon was > 100 µM throughout. The TGI with NCI/ADR-RES ovarian, in the experiment with T-47D breast, in the experiment on MDA-N, with OVCAR-8 ovarian, in the experiment on RPMI-8226 leukemia and in the experiment with MALME-3M melanoma was > 100 µM in each case. In addition, the TGI in the experiment with ACHN renal, with IGROV1 ovarian, in the experiment with SR leukemia, with SK-MEL-5 melanoma, with SK-MEL-28 melanoma and in the experiment with DU-145 prostate was > 100 µM throughout.
With `O=C(N/N=C/C=C/c1ccc([N+](=O)[O-])o1)c1ccc(C(=O)N/N=C/C=C/c2ccc([N+](=O)[O-])o2)cc1`, the TGI in the experiment with SN12C renal was > 54.5 µM; with RXF 393 renal it was 84 µM; in the experiment on UO-31 renal, > 100 µM; in the experiment with CCRF-CEM leukemia, > 20.3 µM; in the experiment on NCI-H23 lung, > 100 µM; in the experiment with COLO 205 colon, > 100 µM. Also, the TGI is > 92.8 µM in the experiment with NCI/ADR-RES ovarian; > 69.2 µM with T-47D breast; > 84.8 µM in the experiment with MDA-N; 27.7 µM in the experiment on OVCAR-8 ovarian; > 32.9 µM with RPMI-8226 leukemia; 35.2 µM with MALME-3M melanoma. The TGI in the experiment with ACHN renal was > 59.1 µM; with IGROV1 ovarian it was > 100 µM; in the experiment on SR leukemia it was > 73.4 µM; in the experiment with SK-MEL-5 melanoma it was 99.7 µM; in the experiment with SK-MEL-28 melanoma, > 100 µM; in the experiment on DU-145 prostate, > 73.4 µM.
Take `CC1(C)OC(=O)C(Cc2ccccc2)(Cc2ccccc2)C(=O)O1`: the TGI in the experiment with SN12C renal, with RXF 393 renal, in the experiment on UO-31 renal, in the experiment with CCRF-CEM leukemia, in the experiment with NCI-H23 lung and with COLO 205 colon was > 100 µM in each case. Besides, the TGI with NCI/ADR-RES ovarian, in the experiment on T-47D breast, in the experiment on MDA-N, in the experiment on OVCAR-8 ovarian, with MALME-3M melanoma and in the experiment with ACHN renal was > 100 µM throughout. For the same molecule, the TGI in the experiment with IGROV1 ovarian, in the experiment on SR leukemia, with SK-MEL-5 melanoma, in the experiment on SK-MEL-28 melanoma and in the experiment on DU-145 prostate was > 100 µM throughout.
With `N#Cc1c(N2CCN(c3ccc([N+](=O)[O-])cc3)CC2)[n+](=O)c2ccccc2n1[O-]`, the TGI in the experiment with SN12C renal, in the experiment with RXF 393 renal, with CCRF-CEM leukemia, with NCI-H23 lung, with COLO 205 colon and with NCI/ADR-RES ovarian was > 100 µM in each case. The TGI with T-47D breast, in the experiment with MDA-N, with OVCAR-8 ovarian, in the experiment with RPMI-8226 leukemia, in the experiment with MALME-3M melanoma and in the experiment on ACHN renal was > 100 µM throughout. The TGI is > 100 µM in the experiment on IGROV1 ovarian; 5.69 µM in the experiment with SR leukemia; > 100 µM with SK-MEL-5 melanoma; > 100 µM with SK-MEL-28 melanoma; > 100 µM with DU-145 prostate.
On to `N/C(=N\S(=O)(=O)c1cc(Cl)c(Oc2ccc([N+](=O)[O-])cc2Cl)c(Cl)c1)Nc1ccc(Cl)cc1`, for which the TGI worked out at 33.3 µM with SN12C renal; 31.8 µM in the experiment with RXF 393 renal; 34.1 µM in the experiment on UO-31 renal; 52.1 µM in the experiment on CCRF-CEM leukemia; 32.1 µM in the experiment with NCI-H23 lung; 30.5 µM in the experiment on COLO 205 colon. Moreover, the TGI in the experiment on NCI/ADR-RES ovarian is 35.3 µM; in the experiment with T-47D breast, 34.2 µM; in the experiment with MDA-N, 34.8 µM; with OVCAR-8 ovarian, 31.9 µM; in the experiment on MALME-3M melanoma, > 100 µM; in the experiment with ACHN renal it was 30.5 µM. The TGI worked out at 31.4 µM in the experiment with IGROV1 ovarian; 43.3 µM in the experiment with SR leukemia; 31.3 µM in the experiment on SK-MEL-5 melanoma; 33 µM in the experiment with SK-MEL-28 melanoma; 35.8 µM in the experiment on DU-145 prostate.
With `CCCCCCCCC/C=C1/CC(CO)(COC(=O)c2ccccc2)OC1=O` (stereo not given), the TGI in the experiment on SN12C renal was found to be 26.4 µM; in the experiment with RXF 393 renal, 31 µM; with UO-31 renal, 27.2 µM; in the experiment on CCRF-CEM leukemia, 28.7 µM; in the experiment on NCI-H23 lung, 28.3 µM; in the experiment on COLO 205 colon, 11.8 µM. Moreover, the TGI turned out to be 28.8 µM in the experiment with NCI/ADR-RES ovarian; 25.1 µM in the experiment with T-47D breast; 20.6 µM in the experiment with MDA-N; 20.8 µM in the experiment on MALME-3M melanoma; 24.9 µM with ACHN renal; 29.6 µM in the experiment with IGROV1 ovarian. Moreover, the TGI was determined as 54 µM in the experiment on SR leukemia, 19.2 µM in the experiment on SK-MEL-5 melanoma, 26.6 µM in the experiment with SK-MEL-28 melanoma and 25.5 µM with DU-145 prostate.
`COC(=O)C1=NN2c3ccccc3CN([C@@H](C)c3ccccc3)C(=O)[C@@H]2[C@H]1c1ccccc1`: the TGI in the experiment on SN12C renal, in the experiment on RXF 393 renal, in the experiment with UO-31 renal, in the experiment with CCRF-CEM leukemia, in the experiment with NCI-H23 lung and in the experiment with COLO 205 colon was > 100 µM throughout. The TGI with NCI/ADR-RES ovarian, with T-47D breast, with MDA-N, in the experiment with OVCAR-8 ovarian, in the experiment on MALME-3M melanoma and in the experiment with ACHN renal was > 100 µM each time. Also, the TGI in the experiment on SR leukemia, in the experiment on SK-MEL-5 melanoma, in the experiment on SK-MEL-28 melanoma and with DU-145 prostate was > 100 µM each time.
`C=CC1(C)OC2(CCN(C(=O)OCC)CC2)OC1C` (stereo not given): the TGI in the experiment with RXF 393 renal, with UO-31 renal, in the experiment on CCRF-CEM leukemia, with NCI-H23 lung, in the experiment with COLO 205 colon and in the experiment on NCI/ADR-RES ovarian was > 100 µM in each case. Also, the TGI in the experiment on T-47D breast, with MDA-N, in the experiment with OVCAR-8 ovarian, in the experiment with RPMI-8226 leukemia, in the experiment on MALME-3M melanoma and with ACHN renal was > 100 µM in each case. The TGI in the experiment on IGROV1 ovarian, with SR leukemia, in the experiment on SK-MEL-5 melanoma, with SK-MEL-28 melanoma and in the experiment with DU-145 prostate was > 100 µM each time.
On to `COc1ccc(C(=O)/C=C/c2ccc(OCC(=N)N)cc2)cc1`, for which the TGI in the experiment on SN12C renal is 26.7 µM; with RXF 393 renal, 28.3 µM; in the experiment on UO-31 renal, 34.1 µM; with CCRF-CEM leukemia it was 25.7 µM; with NCI-H23 lung, 43.3 µM; with COLO 205 colon, 28.6 µM. The TGI came out at 72 µM with NCI/ADR-RES ovarian; 26.5 µM in the experiment on T-47D breast; 31.4 µM with MDA-N; 37.3 µM with OVCAR-8 ovarian; 32 µM in the experiment with MALME-3M melanoma; 31.9 µM in the experiment on ACHN renal. Besides, the TGI in the experiment with IGROV1 ovarian was found to be 40.8 µM; with SR leukemia it was 25.9 µM; in the experiment on SK-MEL-5 melanoma it was 33.1 µM; with SK-MEL-28 melanoma it was 28.6 µM; in the experiment on DU-145 prostate, 25.4 µM.
`COc1cc2c[n+](C)c3c(c2cc1OC)Cc1cc2c(cc1-3)OCO2`: the TGI with SN12C renal, with UO-31 renal, in the experiment with CCRF-CEM leukemia, with NCI-H23 lung, in the experiment on COLO 205 colon and in the experiment on NCI/ADR-RES ovarian was > 100 µM in each case. The TGI in the experiment on T-47D breast, with MDA-N, in the experiment with OVCAR-8 ovarian, with RPMI-8226 leukemia, with MALME-3M melanoma and with IGROV1 ovarian was > 100 µM in each case. The TGI in the experiment on SR leukemia, with SK-MEL-5 melanoma, with SK-MEL-28 melanoma and with DU-145 prostate was > 100 µM throughout.
`c1ccc([P+](CCCCCC[P+](c2ccccc2)(c2ccccc2)c2ccccc2)(c2ccccc2)c2ccccc2)cc1`: the TGI was > 100 µM with SN12C renal; > 100 µM with RXF 393 renal; > 100 µM with UO-31 renal; > 100 µM in the experiment with CCRF-CEM leukemia; 69.6 µM in the experiment on NCI-H23 lung; 13.8 µM with COLO 205 colon. In addition, the TGI is > 100 µM with NCI/ADR-RES ovarian; > 100 µM with T-47D breast; 54.9 µM with MDA-N; 71.2 µM in the experiment with OVCAR-8 ovarian; > 100 µM in the experiment with MALME-3M melanoma; > 100 µM with ACHN renal. Besides, the TGI in the experiment on IGROV1 ovarian is 30.8 µM; with SR leukemia it was > 100 µM; in the experiment with SK-MEL-28 melanoma, > 100 µM; with DU-145 prostate it was > 100 µM.
